Measured values as given in ChEMBL document CHEMBL4480383, “Synthesis of saccharocin from apramycin and evaluation of its ribosomal selectivity” (Medchemcomm, 2019).
pIC50: −log10 of the molar value. Converted amounts (≈) assume the structure as drawn.

Key:
[1] = Antiribosomal activity against humanized bacterial ribosome incorporating complete decoding A site from human mitochondrial ribosome Mit13 assessed as inhibition of luciferase production by cell-free translation assay
Enterobacter cloacae = test: Antibacterial activity against Enterobacter cloacae AG290; assay type: functional
Pseudomonas aeruginosa = test: Antibacterial activity against Pseudomonas aeruginosa AG220; assay type: functional
Acinetobacter baumannii = test: Antibacterial activity against Acinetobacter baumannii AG309; assay type: functional
[2] = Selectivity ratio of IC50 for antiribosomal activity against humanized bacterial ribosome incorporating complete decoding A site from human mitochondrial ribosome Mit13 to IC50 for antiribosomal activity against wild type bacterial ribosomes
Klebsiella pneumoniae = test: Antibacterial activity against Klebsiella pneumoniae AG215; assay type: functional
[3] = Antiribosomal activity against humanized bacterial ribosome incorporating A1555G mutant of human mitochondrial ribosome assessed as inhibition of luciferase production by cell-free translation assay
Escherichia coli = test: Antibacterial activity against Escherichia coli AG001; assay type: functional
Bacterial 70S ribosome = test: Antiribosomal activity against wild type bacterial ribosomes assessed as inhibition of luciferase production by cell-free translation assay; assay type: subcellular, Bacteria
[4] = Selectivity ratio of IC50 for antiribosomal activity against humanized bacterial ribosome incorporating human cytoplasmic ribosome Cyt14 to IC50 for antiribosomal activity against wild type bacterial ribosomes
[5] = Selectivity ratio of IC50 for antiribosomal activity against humanized bacterial ribosome incorporating A1555G mutant of human mitochondrial ribosome to IC50 for antiribosomal activity against wild type bacterial ribosomes
[6] = Antiribosomal activity against humanized bacterial ribosome incorporating human cytoplasmic ribosome Cyt14 assessed as inhibition of luciferase production by cell-free translation assay
Staphylococcus aureus = test: Antibacterial activity against Methicillin-resistant Staphylococcus aureus AG038; assay type: functional

Structure (SMILES) | IC50 [1] | Activity (Enterobacter cloacae) | Activity (Pseudomonas aeruginosa) | Activity (Acinetobacter baumannii) | Ratio IC50 [2] | Activity (Klebsiella pneumoniae) | IC50 [3] | Activity (Escherichia coli) | pIC50 (Bacterial 70S ribosome) | Ratio IC50 [4] | Ratio IC50 [5] | IC50 [6] | Activity (Staphylococcus aureus)
CN[C@@H]1[C@@H](O[C@H]2O[C@H](CO)[C@@H](O)[C@H](O)[C@H]2O)O[C@H]2C[C@@H](N)[C@@H](O[C@H]3[C@H](O)[C@@H](O)[C@H](N)C[C@@H]3N)O[C@@H]2[C@@H]1O | > 500 µg/mL | 4 to 8 µg/mL | 8 to 16 µg/mL | 8 µg/mL | > 3120 | 4 µg/mL | 307 µg/mL (≈ 568 µM) | 8 to 16 µg/mL | 6.53 | 2730 | 1920 | 437 µg/mL (≈ 808 µM) | 32 µg/mL
CN[C@@H]1[C@@H](O[C@H]2O[C@H](CO)[C@@H](N)[C@H](O)[C@H]2O)O[C@H]2C[C@@H](N)[C@@H](O[C@H]3[C@H](O)[C@@H](O)[C@H](N)C[C@@H]3N)O[C@@H]2[C@@H]1O | 67 µg/mL (≈ 124 µM) | 2 to 4 µg/mL | 4 µg/mL | 4 µg/mL | 859 | 1 to 2 µg/mL | 40 µg/mL (≈ 74.1 µM) | 4 µg/mL | 6.84 | 885 | 513 | 69 µg/mL (≈ 128 µM) | 4 µg/mL
